Laboratory results taken from patent publication US20080107619A1, “Carbohydrate based cellulase inhibitors as feeding stimulants in termites” (University of Florida Research Foundation, Inc., priority 2006, published 2008).

Target: exoglucanase
Experiment: In vitro exoglucanase inhibition, pNPC assay (I50 determination)
Format: biochemical, R. flavipes
Conditions: foregut/salivary gland/midgut (endogenous) and hindgut (symbiotic) fractions, FIG. 4
Description: Gut dissections were carried out for cellulase distribution and inhibition studies. For dissections, termites were immobilized on ice, decapitated, and the entire digestive tract removed through a small incision made in the abdominal exoskeleton. For cellulase distribution studies, dissected guts were divided into three regions: (i) salivary gland+foregut, (ii) midgut and (iii) hindgut. For inhibition studies, guts were divided into two major components that included: (i) foregut, salivary gland and midgut, and (ii) hindgut. […]
Cellulase activity assays were adapted from Han et al. in “Characterization of a bifunctional cellulase and its structural gene,” J. Biol. Chem. 270 (1995) 26012-26019, with optimization for a 96-well microplate format. […] Color was allowed to develop on ice for 15 min before measuring absorbance at 540 nm relative to a glucose standard curve.
The hydrolysis product of both the pNPC and pNPG substrates is p-nitrophenol, which is yellow in color and permits for direct quantification of activity in a kinetic assay. pNPC and pNPG assays were initially incubated at 32° C. for 20 min before measuring the release of the product, p-nitrophenol, at 420 nm. The absorbance of reactions was read every 2 min for 1 hr and activity was determined based on rate of absorbance change. […]

Compound	I50 against exoglucanase activity
OC[C@@H]1[C@@H](O[C@@H]2O[C@H](CO)[C@@H](O)[C@H](O)[C@H]2O)[C@H](O)[C@@H](O)c2nccn21 [CBI, cellobioimidazole]	I50s in the nM-μM range
fluoromethyl glucose [FMG]	virtually no inhibitory properties
